From patent publication US20050049294A1, “Methods of using [3.2.0] heterocyclic compounds and analogs thereof” (priority 2003, published 2005)
Several values for one entry are separate records, joined by “and”; a condition that tells them apart may be missing. Equal values may be shown once. Read-outs that look alike come from different tables or passages of the source.

Key:
[1] = test system: NF-κB-mediated luciferase activity in HEK293 NF-κB/Luc cells; assay: NF-κB-mediated luciferase reporter gene assay; type: cell-based, human; conditions: for luciferase activity upon TNF-α stimulation: pretreatment of NF-κB/Luc 293 cells; for EC50: Homo sapiens
Protocol: (§1) The HEK293 NF-κB/luciferase reporter cell line is a derivative of the human embryonic kidney cell line (ATCC; CRL- 1573) and carries a luciferase reporter gene under the regulation of 5×NF-κB binding sites. […] When performing the luciferase assay, the DMEM basal medium was replaced with phenol-red free DMEM basal medium and the G418 was omitted.
For NF-κB-mediated luciferase assays, HEK293 NF-κB/luciferase cells were seeded at 1.5×10^4 cells/well in 90 μl phenol-red free DMEM complete medium into Corning 3917 white opaque-bottom tissue culture plates. […] This dilution series was further diluted 40× in appropriate culture medium and ten μl aliquots were added to the test wells in triplicate resulting in final test concentrations ranging from 1 μM to 320 pM. […] For Formula II-19, a 127 μM starting dilution was made in 100% DMSO and the final test concentrations ranging from 317 nM to 0.1 nM. […] After 1 hr pretreatment, 10 μl of a 50 ng/ml TNF-α solution, prepared in the phenol-red free DMEM medium was added, and the plates were incubated for an additional 6 hr.
NF-κB inducible luciferase activity was measured at 6 hours.
as §1, with “CRL-1573)” for “CRL- 1573)”
For NF-κB-mediated luciferase assays, HEK293 NF-κB/luciferase cells were seeded at 1.5×10^4 cells/well in 90 μl phenol-red free DMEM complete medium into Corning 3917 white opaque-bottom tissue culture plates. For Formula II-2, Formula II-4 and Formula II-5A, a 400 μM starting dilution was made in 100% DMSO and this dilution was used to generate a 8-point half log dilution series. This dilution series was further diluted 40× in appropriate culture medium and ten μl aliquots were added to the test wells in triplicate resulting in final test concentrations ranging from 1 μM to 320 pM. […] After 1 hr pretreatment, 10 μl of a 50 ng/ml TNF-α solution, prepared in the phenol-red free DMEM medium was added, and the plates were incubated for an additional 6 hr.
The relative luciferase units (RLU) were measured by using a Fusion microplate fluorometer (Packard Bioscience).

[2] = test system: B16-F10 cells; assay: Cell growth inhibition (resazurin, 48 hours), B16-F10; type: cell-based, mouse
[3] = test system: HT-29 cells; assay: Cell growth inhibition (resazurin, 48 hours), HT-29; type: cell-based; conditions: Homo sapiens
[4] = test system: MDA-MB-231 cells; assay: Cell growth inhibition (resazurin, 48 hours), MDA-MB-231; type: cell-based; conditions: Homo sapiens
[5] = test system: NCI-H292 cells; assay: Cell growth inhibition (resazurin, 48 hours), NCI-H292; type: cell-based, human
[6] = test system: PC-3 cells; assay: Cell growth inhibition (resazurin, 48 hours), PC-3; type: cell-based, human
[7] = test system: MES-SA cells; assay: Cell growth inhibition (resazurin, 48 hours), MES-SA
[8] = test system: HL-60 cells; assay: Cell growth inhibition (resazurin, 48 hours), HL-60
From the text: (§2) The DNA binding agent Mitoxantrone was included as a control, as HL-60/MX2 cells are reported to be resistant to this chemotherapeutic agent (Harker W. G. et al. 1989).

[9] = test system: HL-60/MX2 cells; assay: cells; conditions: for Fold change: ratio of EC50 values (HL-60/MX2:HL-60)
From the text: as §2

[10] = target: T1, trypsin-like activity of purified rabbit 20S proteasomes (Oryctolagus cuniculus, UniProt G1SWK8); conditions: under the conditions tested
T1 sequence (G1SWK8 1-271): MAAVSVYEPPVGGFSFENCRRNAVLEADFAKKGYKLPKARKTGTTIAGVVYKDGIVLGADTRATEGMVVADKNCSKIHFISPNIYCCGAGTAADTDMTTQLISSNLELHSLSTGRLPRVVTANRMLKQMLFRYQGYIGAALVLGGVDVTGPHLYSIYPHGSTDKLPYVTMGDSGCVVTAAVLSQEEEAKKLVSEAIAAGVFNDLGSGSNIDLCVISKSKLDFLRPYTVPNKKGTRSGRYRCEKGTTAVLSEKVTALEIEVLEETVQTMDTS

[11] = test system: LeTx-induced cytotoxicity of RAW264.7 cells; assay: cells; conditions: Mus musculus
[12] = target: T1, trypsin-like activity of purified rabbit 20S proteasomes; assay: biochemical
[13] = test system: U266 cells; assay: Cell growth inhibition (resazurin, 48 hours), U266
[14] = Mus musculus, B16-F10, Table 13, B16-F10
[15] = Homo sapiens, NCI-H292, Table 13, NCI-H292
[16] = Homo sapiens, MES-SA, read-out: EC50 (nM) MES-SA, Table 16
[17] = read-out: EC50 (nM) MES-SA, Table 16
[18] = Homo sapiens, HL-60, read-out: EC50 (nM) HL-60, Table 17
[19] = read-out: EC50 (nM) HL-60, Table 17
[20] = Homo sapiens, HL60/MX2, read-out: EC50 (nM) HL-60/MX2, Table 17
[21] = read-out: EC50 (nM) HL-60/MX2, Table 17
[22] = RAW264.7, read-out: EC50 (nM), inhibition of RAW 264.7 cell cytotoxicity mediated by anthrax lethal toxin
[23] = Homo sapiens, U-266, Table 13, U266
[24] = Homo sapiens, U-266, read-out: U266 EC50 (nM), Table 15, mean EC50

For `C[C@@]12OC(=O)[C@]1([C@@H](O)[C@@H]1C=CCCC1)NC(=O)[C@@H]2CCBr` [Formula II-18], the “luciferase activity upon TNF-α stimulation” value [1] was “dose-dependent decrease”, the EC50 [2, 14] was 19 nM and the EC50 ([2]; Table 13, B16-F10) was 36 nM. It also gave an EC50 ([3]; HT-29) of 18 ± 7.8 nM, an EC50 ([4]; MDA-MB-231) of 16 ± 2.8 nM and an EC50 [5, 15] of 29 nM. For the same compound, the EC50 ([5]; Table 13, NCI-H292) was 41 nM, the EC50 ([6]; Homo sapiens, PC-3) was 35 ± 5.6 nM and the EC50 [7, 16] was 22 nM. It also gave an EC50 [7, 17] of 17 nM, an EC50 [8, 18] of 27 nM and an EC50 [8, 19] of 23 nM. For the same compound, the EC50 [9, 20] was 19 nM, the Fold change ([9]; Table 17) was 0.7 fold and the EC50 [9, 21] was 18 nM. For the same compound, the “inhibit the trypsin-like activity of the 20S proteasome” value (“inhibit the trypsin-like activity” below) [10] was “able to inhibit”, the EC50 [11, 22] was 4 nM and the EC50 [12] was 14 nM. The EC50 [13, 23] was 4.2 nM and the EC50 [13, 24] was 4.2 nM.

With `C[C@@]12OC(=O)[C@]1([C@@H](O)C1CCCCC1)NC(=O)[C@@H]2CCBr` [Formula II-4] the EC50 ([1]; HEK293, read-out: calculated EC50 to inhibit NF-κB inducible luciferase activity) was 67 nM, the “luciferase activity upon TNF-α stimulation” value [1] was “dose-dependent decrease” and the EC50 [2, 14] was 163 nM. For the same compound, the EC50 ([2]; Table 13, B16-F10) was 175 nM, the EC50 ([3]; Table 13, HT-29, read-out: EC50) was 132 ± 36 nM and the EC50 ([4]; MDA-MB-231) was 114 ± 4 nM. For the same compound, the EC50 [5, 15] was 192 nM, the EC50 ([6]; Homo sapiens, PC-3) was 204 ± 49 nM and the EC50 [7, 16] was 163 nM. For the same compound, the EC50 [8, 18] was 111 nM, the EC50 [9, 20] was 103 nM and the Fold change ([9]; Table 17) was 0.8 fold. The EC50 [9, 21] was 97 nM, the “inhibit the trypsin-like activity” value [10] was “able to inhibit” and the EC50 [11, 22] was 14 nM. For the same compound, the EC50 [12] was 109 nM, the EC50 [13, 23] was 39 nM and the EC50 [13, 24] was 36 nM. For the same compound, the EC50 ([13]; Table 13, U266) was 34 nM.

`C[C@@]12OC(=O)[C@]1([C@@H](O)[C@@H]1C=CCCC1)NC(=O)[C@@H]2CCCl` [Formula II-16, Salinosporamide A] was tested, and the EC50 ([1]; HEK293, 6 h, read-out: calculated EC50 for inhibition of NF-κB/luciferase activity) was roughly 7 nM, the “luciferase activity upon TNF-α stimulation” value [1] was “dose-dependent decrease” and the EC50 ([2]; Mus musculus, B16-F10, 48 h) was 33 nM. The EC50 ([2]; Mus musculus, B16-F10, 48 h, read-out: EC50 (nM), mean ± SD) was 47 ± 20 nM, the EC50 ([3]; HT-29, 48 h) was 47 nM and the EC50 ([3]; HT-29, 48 h, read-out: EC50 (nM), mean ± SD) was 40 ± 26 nM. For the same compound, the EC50 ([4]; MDA-MB-231, 48 h) was 67 nM, the EC50 ([4]; MDA-MB-231, 48 h, read-out: EC50 (nM), mean ± SD) was 87 ± 40 nM and the EC50 ([5]; Homo sapiens, NCI-H292, 48 h) was 97 nM. The EC50 ([5]; Homo sapiens, NCI-H292, 48 h, read-out: EC50 (nM), mean ± SD) was 66 ± 29 nM, the EC50 ([6]; Homo sapiens, PC-3, 48 h, PC3, 48h, panel of b226) was 78 nM and the EC50 ([6]; Homo sapiens, PC-3, 48 h, read-out: EC50 (nM), mean ± SD, Table 2, PC-3, human prostate adenocarcinoma, 48 hours) was 64 ± 26 nM. For the same compound, the EC50 ([6]; Homo sapiens, PC-3, Table 6, PC-3 (n = 2)) was 31 nM, the “% cytotoxicity” value ([6]; Table 6, PC-3 (n = 2)) was 88% and 89% and the EC50 ([6]; Table 6, PC-3 (n = 2)) was 25 nM. For the same compound, the EC50 ([7]; Homo sapiens, MES-SA, read-out: EC50 (nM), mean) was 20 ± 5 nM, the “% cytotoxicity, mean ± SD” value ([7]; Table 7, MES-SA) was 94 ± 1% and the EC50 ([8]; Homo sapiens, HL-60, Table 8, HL-60) was 27 nM. The “% cytotoxicity” value ([8]; Table 8, HL-60) was 88% and 91%, the EC50 ([8]; Table 8, HL-60) was 30 nM and the EC50 ([9]; Homo sapiens, HL60/MX2, Table 8, HL-60/MX2) was 28 nM. For the same compound, the “% cytotoxicity” value ([9]; Table 8, HL-60/MX2) was 84% and 89%, the EC50 ([9]; Table 8, HL-60/MX2) was 25 nM and the “inhibit the trypsin-like activity” value [10] was “able to inhibit”. It also gave an EC50 ([11]; RAW264.7, read-out: average EC50, viability of LeTx-treated cells) of less than 4 nM, an EC50 ([13]; Homo sapiens, U-266, 48 h, read-out: EC50 (nM), mean ± SD) of 4.7 ± 0.7 nM and an EC50 ([13]; Homo sapiens, U-266, read-out: U266 EC50 (nM)) of 4.1 nM.

For `C[C@@]12OC(=O)[C@]1([C@@H](O)C1CCCCC1)NC(=O)[C@@H]2CCCl` [Formula II-2], the EC50 ([1]; HEK293, representative experiment, Example 43 (FIG. 44, 45), read-out: calculated EC50 to inhibit NF-κB inducible luciferase activity) was 73 nM, the “luciferase activity upon TNF-α stimulation” value [1] was “dose-dependent decrease” and the EC50 [2, 14] was 194 nM. For the same compound, the EC50 ([3]; HT-29) was 129 ± 21 nM, the EC50 ([4]; MDA-MB-231) was 121 ± 23 nM and the EC50 [5, 15] was 322 nM. It also gave an EC50 ([6]; Homo sapiens, Table 13, PC-3, read-out: EC50) of 284 ± 110 nM, an EC50 [7, 16] of 193 nM and an EC50 [7, 17] of 155 nM. It also gave an EC50 [8, 18] of 237 nM, an EC50 [8, 19] of 176 nM and an EC50 [9, 20] of 142 nM. The Fold change ([9]; Table 17) was 0.7 fold, the EC50 [9, 21] was 133 nM and the “inhibit the trypsin-like activity” value [10] was “able to inhibit”. For the same compound, the EC50 [11, 22] was 14 nM, the EC50 [12] was 230 nM and the EC50 [13, 23] was 32 nM. It also gave an EC50 [13, 24] of 36 nM.
